Source: patent US8143421B2, “Broadspectrum substituted benzimidazole sulfonamide HIV protease inhibitors” (priority 2002, dated 2012)

Assays:
[1] = test system: HIV-1 strain LAI; experiment: Cellular anti-HIV assay, MT4 cells, MTT readout, wild type HIV-1 strain LAI; format: cell-based; details: for WT (pIC50 against wild type HIV-LAI strain): Table 4
Procedure: The compounds of the present invention were examined for anti-viral activity in a cellular assay. […] The cellular assay was performed according to the following procedure.

[2] = test system: mutant H; experiment: Antiviral spectrum, fold resistance towards mutant H; format: cell-based; details: FR=IC50(mutant strain)/IC50(HIV-1 strain LAI)
Procedure: Because of the increasing emergence of drug resistant HIV strains, the present compounds were tested for their potency against clinically isolated HIV strains harboring several mutations. These mutations are associated with resistance to protease inhibitors and result in viruses that show various degrees of phenotypic cross-resistance to the currently commercially available drugs such as for instance saquinavir, ritonavir, nelfinavir, indinavir and amprenavir. The viral strains R13025, R13027, R13028, R13029, R13034, R13080, T13127 and R13363 contained mutations as indicated below in Table 3.

[3] = test system: mutant A; format: cell-based; details: FR=IC50(mutant strain)/IC50(HIV-1 strain LAI)
Procedure: (§1) HIV- or mock-infected MT4 cells were incubated for five days in the presence of various concentrations of the inhibitor. […] Cell viability is measured by measuring the concentration of MTT, a yellow, water soluble tetrazolium dye that is converted to a purple, water insoluble formazan in the mitochondria of living cells only. Upon solubilization of the resulting formazan crystals with isopropanol, the absorbance of the solution is monitored at 540 nm. The values correlate directly to the number of living cells remaining in the culture at the completion of the five day incubation. The inhibitory activity of the compound was monitored on the virus-infected cells and was expressed as IC50 and IC90. These values represent the amount of the compound required to protect 50% and 90%, respectively, of the cells from the cytopathogenic effect of the virus. […] The selectivity index (SI) (ratio CC50/IC50) is an indication of the selectivity of the anti-HIV activity of the inhibitor. Wherever results are reported as e.g. pIC50 or pCC50 values, the result is expressed as the negative logarithm of the result expressed as IC50 or CC50 respectively.
(§2) Because of the increasing emergence of drug resistant HIV strains, the present compounds were tested for their potency against clinically isolated HIV strains harboring several mutations. […] The viral strains R13025, R13027, R13028, R13029, R13034, R13080, T13127 and R13363 contained mutations as indicated below in Table 3.
(§3) As a measure of the broad spectrum activity of the present compounds, the fold resistance (FR), defined as FR=IC50(mutant strain)/IC50(HIV-1 strain LAI), was determined.

[4] = test system: mutant E; format: cell-based; details: FR=IC50(mutant strain)/IC50(HIV-1 strain LAI)
Procedure: as §1, §2, §3

[5] = test system: mock-infected MT4 cells; experiment: in vitro
Procedure: as §1, §3

[6] = Table 1, MT4 cells, five days, HIV-1 strain LAI
[7] = pCC50 value as determined with mock transfected cells
[8] = Table 2, MT4 cells, five days, HIV-1 strain LAI

Compound	pIC50 (LAI) [1, 6]	IC50 ([1]; Human immunodeficiency virus 1, 120 h, Table 1, MT4 cells, five days, HIV-1 strain LAI, read-out: pIC50 (LAI) (converted)) [µM]	FR towards mutant H [2]	FR value towards mutant A [3]	FR towards mutant E [4]	Tox (pCC50) [5]	WT (pIC50 against wild type HIV-LAI strain) [1]	Tox (pCC50) [5, 7]	pIC50 (LAI) [1, 8]
COC(=O)Nc1nc2ccc(S(=O)(=O)N(CC(C)C)CC(O)C(Cc3ccccc3)NC(=O)OC3COC4OCCC34)cc2[nH]1 (stereo not drawn) [Compound 10]	8.0	–	–	–	–	–	–	–	–
CC(C)CN(C[C@@H](O)[C@H](Cc1ccccc1)NC(=O)O[C@H]1CCOC1)S(=O)(=O)c1ccc2ncn(CC(C)C)c2c1 [Compound 14]	7.7	–	–	–	–	–	–	–	–
CC(C)CN(C[C@@H](O)[C@H](Cc1ccccc1)NC(=O)O[C@H]1CO[C@H]2OCC[C@H]21)S(=O)(=O)c1ccc2ncn(CCN3CCCC3)c2c1 [Compound 20, [(1S,2R)-2-hydroxy-1-(phenyl-methyl)-3-[[[1-[2-(pyrrolidin-1-yl)ethyl]benzimidazol-6-yl]sulfonyl](2-methylpropyl)-amino]propyl]carbamic acid, [(3R,3aS,6aR)-hexahydrofuro[2,3-b]furan-3-yl]ester]	–	0.0398	–	–	–	–	–	–	–
COC(=O)Nc1nc2ccc(S(=O)(=O)N(CC(C)C)C[C@@H](O)[C@H](Cc3ccccc3)NC(=O)c3ccc(O)cc3C)cc2[nH]1 [Compound 25]	7.1	–	4.6	1.2	1.3	4.3	7.1	–	–
COC(=O)Nc1nc2ccc(S(=O)(=O)N(CC(C)C)C[C@@H](O)[C@H](Cc3ccccc3)NC(=O)COc3c(C)cc(CN)cc3C)cc2[nH]1 [Compound 26]	7.0	–	47	6.3	6.8	–	7.0	4.86	–
CC(=O)Nc1nc2ccc(S(=O)(=O)N(CC(C)C)C[C@@H](O)[C@H](Cc3ccccc3)NC(=O)O[C@H]3CCOC3)cc2[nH]1 [Compound 27]	7.3	–	2.3	2.7	1.1	<4	7.3	–	–
CC(C)CN(CC(O)C(Cc1ccccc1)NC(=O)OC1COC2OCCC12)S(=O)(=O)c1ccc2ncn(Cc3ccncc3)c2c1 (stereo not drawn) [Compound 28]	7.5	–	2.6	1.5	1.3	–	7.5	–	–
Cc1cccc(C)c1OCC(=O)N[C@@H](Cc1ccccc1)[C@H](O)CN(CC(C)C)S(=O)(=O)c1ccc2nc[nH]c2c1 [Compound 29]	7.1	–	78	14	13	4.21	7.1	–	–
CC(C)CN(C[C@@H](O)[C@H](Cc1ccccc1)NC(=O)OCc1cncs1)S(=O)(=O)c1ccc2ncn(Cc3ccccc3)c2c1 [Compound 30]	7.1	–	65	18	13	–	7.1	–	–
Cc1cccc(C)c1OCC(=O)N[C@@H](Cc1ccccc1)[C@H](O)CN(CC(C)C)S(=O)(=O)c1ccc2ncn(C)c2c1 [Compound 31]	7.2	–	209	13	9.5	4.24	7.2	–	–
CC(C)CN(C[C@@H](O)[C@H](Cc1ccccc1)NC(=O)OCc1cncs1)S(=O)(=O)c1ccc2ncn(CC(C)C)c2c1 [Compound 32]	7.4	–	41	18	13	4.2	7.4	–	–
CC(C)CN(C[C@@H](O)[C@H](Cc1ccccc1)NC(=O)OCc1cncs1)S(=O)(=O)c1ccc2ncn(C)c2c1 [Compound 33]	7.0	–	234	60	19	<4	7.7	–	–
CC(C)CN(C[C@@H](O)[C@H](Cc1ccccc1)NC(=O)OCc1cncs1)S(=O)(=O)c1ccc2ncn(CCc3ccccc3)c2c1 [Compound 34]	7.0	–	46	32	17	–	7.0	<4	–
CC(C)CN(C[C@@H](O)[C@H](Cc1ccccc1)NC(=O)OC(C)(C)C)S(=O)(=O)c1ccc2nc(N)n(Cc3ccccc3)c2c1 [Compound 39]	6.9	–	–	32	3.5	–	6.9	–	–
CC(C)CN(C[C@@H](O)[C@H](Cc1ccccc1)NC(=O)O[C@H]1CO[C@H]2OCC[C@H]21)S(=O)(=O)c1ccc2nc(NCCN3CCCC3)n(CCc3ccccc3)c2c1 [Compound 40, [(1S,2R)-2-hydroxy-3-[[[[1-(phenethyl)-2-[2-(pyrrolidin-1-yl)ethylamino]]benzimidazol-6-yl]sulfonyl](2-methylpropyl)amino]-1-(phenylmethyl)propyl]carbamic acid, [(3R,3aS,6aR)-hexahydrofuro[2,3-b]furan-3-yl]ester]	6.4	–	7.9	10	4.0	–	6.4	–	–
CC(C)CN(C[C@@H](O)[C@H](Cc1ccccc1)NC(=O)O[C@H]1CCOC1)S(=O)(=O)c1ccc2nc[nH]c2c1 [Compound 42]	7.1	–	52	–	8.7	<4	7.1	–	–
Cc1cccc(C)c1OCC(=O)N[C@@H](Cc1ccccc1)[C@H](O)CN(CC(C)C)S(=O)(=O)c1ccc2ncn(CC(C)C)c2c1 [Compound 45]	6.3	–	–	9.3	7.4	<4	6.3	–	–
Cc1c(N)cccc1C(=O)N[C@@H](Cc1ccccc1)[C@H](O)CN(CC(C)C)S(=O)(=O)c1ccc2nc[nH]c2c1 [Compound 46]	6.4	–	–	–	–	–	6.4	<4	–
CC(C)CN(CC(O)C(Cc1ccccc1)NC(=O)OC1COC2OCCC12)S(=O)(=O)c1ccc2ncn(Cc3cncn3C)c2c1 (stereo not drawn) [Compound 51]	6.2	–	2.1	2.8	0.89	–	6.2	–	–
CC(C)CN(C[C@@H](O)[C@H](Cc1ccccc1)NC(=O)O[C@H]1CCOC1)S(=O)(=O)c1ccc2nc(N)[nH]c2c1 [Compound 53]	6.0	–	–	–	–	4.05	6.0	–	–
CC(C)CN(CC(O)C(Cc1ccccc1)NC(=O)OC1COC2OCCC12)S(=O)(=O)c1ccc2c(c1)ncn2CCN(C)C (stereo not drawn) [Compound 60]	–	–	–	–	–	–	–	–	6.5
Cc1cc(N)cc(C)c1OCC(=O)N[C@@H](Cc1ccccc1)[C@H](O)CN(CC(C)C)S(=O)(=O)c1ccc2c(c1)ncn2CCN(C)C [Compound 62]	–	–	–	–	–	–	–	–	5.7
